Values of other authors in patent US20240226034A1, “Use of Terpenoids and Salicylates as Anesthetics and Analgesics” (THE REGENTS OF THE UNIVERSITY OF CALIFORNIA, priority 2021, published 2024).

System: rats
Details: antagonism of spinal GABAA receptors in rats; cited from earlier work

## FC(F)OC(Cl)C(F)(F)F (stereo not shown) [isoflurane]
  increase of EC50 for immobilization: up to 40%
